{"source": "patent US9814707B2", "about": "“Cancer stem cell proliferation inhibitor and intracellular active oxygen accumulation inducer” (Keio University, priority 2014, dated 2017)", "key": {"[1]": {"tested_on": "HSC2, HSC3, HSC4, and OSC19 cells", "test": "Sensitivity of squamous cell carcinoma cell lines to cisplatin, cell viability by Celltiter-Glo after 72 hours", "format": "cell-based", "settings": "OSC19 compared with HSC2, HSC3, and HSC4, cisplatin 1, 2.5, 5, 7.5 μM, FIG. 3", "protocol": "Next, GSH levels in the cells were measured using GSH-Glo™ Glutathione Assay (Promega) to examine the correlation with the CD44v expression. Furthermore, in order to examine the sensitivity of the cell lines in which CD44 expression is suppressed to cisplatin, each cell line was seeded onto a 96-well plate at 2000 cells/well and cisplatin was added the following day at concentrations of 1, 2.5, 5, and 7.5 μM. After 72 hours, the cell viability was measured using Celltiter-Glo (Promega)."}, "OSC19 and HSC4 cells [2]": {"tested_on": "OSC19 and HSC4 cells", "test": "Cell viability by Celltiter-Glo after 72 hours with pimozide or sulfasalazine", "format": "cell-based", "settings": "FIGS. 7 and 8; for sensitivity of OSC19 cells versus HSC4 cells (cell viability): pimozide 0.3-100 μM, sulfasalazine 10-1000 μM", "protocol": "Cell viability was examined for OSC19 and HSC4 cells incubated in a medium supplemented with US077 (pimozide). […] OSC19 and HSC4 cells were seeded in 96-well plates at 3000 cells/well and 2000 cells/well, respectively. On the following day, 0 μM (no addition), 0.3 μM, 1 μM, 3 μM, 10 μM, 30 μM, or 100 μM of pimozide or 0 μM (no addition), 10 μM, 30 μM, 100 μM, 300 μM, or 1000 μM of sulfasalazine were added. Then, the cells were incubated for 72 hours and cell viability was measured using Celltiter-Glo (Promega)."}, "OSC19 and HSC4 cells [3]": {"tested_on": "OSC19 and HSC4 cells", "test": "Intracellular reactive oxygen species by H2DCFDA staining with pimozide or sulfasalazine", "format": "cell-based", "settings": "24 hours, FIG. 11; for inductive effect on intracellular accumulation of reactive oxygen species, OSC19 versus HSC4: pimozide 1, 3, 10 μM, sulfasalazine 300 μM", "protocol": "OSC19 and HSC4 cells were seeded onto 24-well glass-bottomed plate at 1×10^5 cells/well. On the following day, 0 μM (no addition), 1 μM, 3 μM, or 10 μM of pimozide or 300 μM of sulfasalazine was added. Subsequently, the cells were incubated for 24 hours, stained with H2DCFDA to visualize intracellular reactive oxygen species, and observed under a fluorescence microscope."}, "OSC19 cells [4]": {"tested_on": "OSC19 cells", "test": "Subcutaneous OSC19 transplant in nude mice, tumor volume and tumor mass", "format": "in vivo", "settings": "1 mg/kg intraperitoneally once daily from day 5 to day 35 versus saline; FIGS. 9 and 10", "protocol": "Next, 1×10^6 OSC19 cells were subcutaneously transplanted into nude mice. After 5 days of transplantation, 1 mg/kg of pimozide or saline was intraperitoneally administered once daily to day 35. Short and long axes of each tumor were measured once every 3-4 days and a volume of the tumor was calculated using the following equation. Tumor volume=(long axis×(short axis)^2)/2 Specific tumor volume=tumor volume on the day measured/tumor volume at the beginning of administration Statistic analysis of the tumor volume was performed using Two-way ANOVA. Each tumor was removed after the treatment experiments and the mass of the tumor was measured. Statistic analysis of the tumor mass was performed using a t-test."}, "OSC19 cells [5]": {"tested_on": "OSC19 cells", "test": "Level of reactive oxygen species by H2DCFDA staining, fluorescence microscopy", "format": "cell-based", "settings": "10 μM, 24 hours, FIG. 6", "protocol": "Next, change in level of reactive oxygen species by the compounds having a high selectivity to OSC19 was examined. OSC19 cells were seeded onto 24-well glass-bottomed plate at 1×10^5 cells/well, and each compound was added at 10 μM on the following day. Subsequently, the cells were incubated for 24 hours, stained with 2′,7′-dichloro-dihydro-fluorescein-diacetate (H2DCFDA), which is a redox fluorescence indicator, and observed under a fluorescence microscope. In addition, their ability of inducing the reactive oxygen species was evaluated according to the fluorescence intensity. FIG. 6 is fluorescence micrographs of OSC19 cells treated with the compounds given in Table 1, showing the increase in ROS in OSC19 cells scored on 4 rating scales. The “4 rating scales” are as follows."}, "OSC19 cells [6]": {"tested_on": "OSC19 cells", "test": "Ratio of H2DCFDA-stained cells to Hoechst33342-stained cells with sertindole or sulfasalazine", "format": "cell-based", "settings": "10 μM sertindole versus 300 μM sulfasalazine, 24 hours; FIG. 13", "protocol": "OSC19 cells were seeded onto 24-well glass-bottomed plate at 1×10^5 cells/well and started to be incubated. Two days after the beginning of the incubation, 0.1 μM, 1 μM, or 10 μM of sertindole or 300 μM of sulfasalazine was added. DMSO was added to the control. The cells were then incubated for 24 hours, and 2′,7′-dichloro-dihydro-fluorescein-diacetate (H2DCFDA), which is a redox fluorescence indicator capable of emitting fluorescence when oxidized by reactive oxygen species in cells and Hoechst33342 that stains a cell nucleus were added. A ratio of the number of cells stained with H2DCFDA to the number of cells stained with Hoechst33342 was calculated."}, "OSC19 and HSC4 cells [7]": {"tested_on": "OSC19 and HSC4 cells", "test": "Cell viability by Celltiter-Glo after 72-hour incubation with sertindole", "format": "cell-based", "settings": "sertindole 0.19-45.00 μM, FIG. 12", "protocol": "OSC19 and HSC4 cells were seeded in 96-well plates at 3000 cells/well and 2000 cells/well, respectively, and started to be incubated. Two days after the beginning of the incubation, 0 μM (no addition), 0.19 μM, 0.56 μM, 1.67 μM, 5.00 μM, 15.00 μM, or 45.00 μM of sertindole was added. After 72-hour incubation, the number of the survived cells was measured using Celltiter-Glo (registered trademark) (Luminescent Cell Viability Assay; Promega). A ratio of the number of the survived cells to the number of the cells on the first day of incubation was calculated as a cell viability value."}, "OSC19": {"tested_on": "OSC19", "test": "Combined use of pimozide and sulfasalazine, cell viability by CellTiter-Glo after 72 hours", "format": "cell-based", "settings": "150 μM of sulfasalazine alone, OSC19, 72 hours", "protocol": "Oral squamous cell carcinoma cell line, OSC19, was seeded onto 96-well plates at 3000 cells/well. On the following day, a combination of 0 μM (no addition; only DMSO), 1 μM, 2 μM, or 3 μM of pimozide, and 0 μM (no addition; only DMSO), 10 μM, 50 μM, 100 μM, 150 μM, or 200 μM of sulfasalazine was added. Subsequently, cells were incubated for 72 hours, and cell viability was measured using a CellTiter-Glo Luminescent Cell Viability Assay kit (Promega). Effects obtained using pimozide and sulfasalazine at different concentrations are shown in a graph in FIG. 14."}}}
{"compound": "N.N.[Cl][Pt][Cl]", "note": "[cisplatin]", "values": [{"measurement": "sensitivity to cisplatin (cell viability)", "setting": "[1]", "result": "significantly lower in sensitivity to cisplatin"}]}
{"compound": "O=c1[nH]c2ccccc2n1C1CCN(CCCC(c2ccc(F)cc2)c2ccc(F)cc2)CC1", "note": "[pimozide, Pimozide]", "values": [{"measurement": "inhibitory effect on cell proliferation, concentration compared with sulfasalazine", "setting": "OSC19 and HSC4 cells [2]", "result": "inhibitory effect on cell proliferation at a lower concentration than sulfasalazine"}, {"measurement": "sensitivity of OSC19 cells versus HSC4 cells (cell viability)", "setting": "OSC19 and HSC4 cells [2]", "result": "higher sensitivity to pimozide than the HSC4 cells"}, {"measurement": "inductive effect on intracellular accumulation of reactive oxygen species compared with sulfasalazine", "setting": "OSC19 and HSC4 cells [3]; pimozide 1, 3, 10 μM versus sulfasalazine 300 μM", "result": "significantly greater inductive effect on intracellular accumulation of reactive oxygen species at a significantly lower concentration as compared with sulfasalazine"}, {"measurement": "inductive effect on intracellular accumulation of reactive oxygen species, OSC19 versus HSC4", "setting": "OSC19 and HSC4 cells [3]", "result": "inductive effect on intracellular accumulation of reactive oxygen species selectively in OSC19 cells"}, {"measurement": "tumor volume and tumor mass on day 35 (proliferation of OSC19 cells in mice)", "setting": "OSC19 cells [4]", "result": "inhibition of proliferation of the OSC19 cells"}, {"measurement": "increase in ROS in OSC19 cells scored on 4 rating scales", "setting": "OSC19 cells [5]", "result": "significantly great increase in ROS level"}]}
{"compound": "O=C1NCCN1CCN1CCC(c2cn(-c3ccc(F)cc3)c3ccc(Cl)cc23)CC1", "note": "[sertindole, Sertindole]", "values": [{"measurement": "intracellular ROS level (H2DCFDA-stained / Hoechst33342-stained cells) compared with sulfasalazine", "setting": "OSC19 cells [6]", "result": "intracellular ROS level was higher as compared with a case where sulfasalazine was added at 30 times higher concentration"}, {"measurement": "inhibition of cell proliferation, OSC19 versus HSC4 (cell viability)", "setting": "OSC19 and HSC4 cells [7]", "result": "cell proliferation was inhibited by the addition of a lower concentration of sertindole for OSC19 than for HSC4"}]}
{"compound": "Sulfasalazine", "values": [{"measurement": "sensitivity of OSC19 cells versus HSC4 cells (cell viability)", "setting": "OSC19 and HSC4 cells [2]", "result": "higher sensitivity to sulfasalazine than the HSC4 cells"}, {"measurement": "inductive effect on intracellular accumulation of reactive oxygen species, OSC19 versus HSC4", "setting": "OSC19 and HSC4 cells [3]", "result": "selectively in OSC19 cells as in the case of sulfasalazine"}, {"measurement": "mortality of cells", "setting": "OSC19", "result": "about 30%"}]}
